Reference: patent publication US20240279220A1, “INDOLE COMPOUNDS AND METHODS OF USE” (Genzyme Corporation, priority 2021, published 2024)

System: NBD1/3D
Assay: Aggregation analysis using differential static light scattering (DSLS), NBD1 thermal stability
Type: binding, Human
Conditions: ΔTagg versus DMSO control; compound at 100 μM
Method in brief: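 Thermal stabilisation reported as ΔTagg, i.e. aggregation temperature relative to averaged DMSO wells. Tagg came from the inflection of differential static light scattering imaged 25–70 °C while NBD1 (0.2 mg/ml, Tris pH 7.6 buffer containing ATP, MgCl2, DTT, glycerol) was ramped 1 °C/min.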

| SMILES | DSLS NBD1/3D Human Stability delta-T (° C.) @ 100 (μM) |
| --- | --- |
| Cc1c(Oc2ccc(F)c(-c3ncc([C@]4(c5cccc(CCC(=O)O)c5)C[C@@H](O)CO4)[nH]3)c2)c(F)cc2[nH]ccc12 (racemic) [Example 275, rac-3-(3-((2r,4r)-2-(2-(2-Fluoro-5-((6-fluoro-4-methyl-1H-indol-5-yl)oxy)phenyl)-1H-imidazol-5-yl)-4-hydroxytetrahydrofuran-2-yl)phenyl)propanoic acid] | B (B: 5-10° C.) |
| CS(=O)(=O)c1c(Oc2cccc(-c3nc(Cc4cccc(CCC(=O)O)c4)co3)c2)c(F)cc2[nH]ccc12 [Example 42, 3-(3-((2-(3-((6-Fluoro-4-(methylsulfonyl)-1H-indol-5-yl)oxy)phenyl)oxazol-4-yl)methyl)phenyl)propanoic acid] | B (B: 5-10° C.) |
| Cc1c(Oc2ccc(F)c(-c3ncc(Cc4cc(F)cc(CCC(=O)O)c4)[nH]3)c2)c(F)cc2[nH]ccc12 [Example 108, 3-(3-fluoro-5-((2-(2-fluoro-5-((6-fluoro-4-methyl-1H-indol-5-yl)oxy)phenyl)-1H-imidazol-5-yl)methyl)phenyl)propanoic acid] | B (B: 5-10° C.) |
| Cc1c(Oc2cccc(-c3ccn(Cc4cccc(CC(=O)O)c4)n3)c2)ccc2[nH]ccc12 [Example 5, 2-(3-((3-(3-((4-methyl-1H-indol-5-yl)oxy)phenyl)-1H-pyrazol-1-yl)methyl)phenyl)acetic acid] | B (B: 5-10° C.) |
| O=C(O)CCc1cccc(C2(c3cnc(-c4cc(Oc5c(F)cc6[nH]ccc6c5F)ccc4F)[nH]3)OCCCO2)c1 [Example 228, 3-(3-(2-(2-(5-((4,6-difluoro-1H-indol-5-yl)oxy)-2-fluorophenyl)-1H-imidazol-5-yl)-1,3-dioxan-2-yl)phenyl)propanoic acid] | A (A: T ≥ 10° C.) |
| Cc1c(Oc2ccc(F)c(-c3ncc(C(C)(O)c4cccc(CCC(=O)O)c4)[nH]3)c2)c(F)c(F)c2[nH]ccc12 (centres unmarked) [Example 204, 3-(3-(1-(2-(5-((6,7-difluoro-4-methyl-1H-indol-5-yl)oxy)-2-fluorophenyl)-1H-imidazol-5-yl)-1-hydroxyethyl)phenyl) propanoic acid] | B (B: 5-10° C.) |
| O=C(O)CCc1cccc(Cc2nnc(-c3cc(Oc4c(F)cc5[nH]ccc5c4Cl)ccc3F)[nH]2)c1 [Example 239, 3-(3-((5-(5-((4-chloro-6-fluoro-1H-indol-5-yl)oxy)-2-fluorophenyl)-4H-1,2,4-triazol-3-yl)methyl)phenyl) propanoic acid] | C (C: ≤5° C.) |
| O=C(O)CCCCc1cccc(Cc2nnc(-c3cccc(Oc4ccc5[nH]ccc5c4)c3)[nH]2)c1 [Example 258, 5-(3-((5-(3-((1H-indol-5-yl)oxy)phenyl)-4H-1,2,4-triazol-3-yl)methyl)phenyl)pentanoic acid] | C (C: ≤5° C.) |
| Cc1nc(-c2cc(Oc3c(F)cc4[nH]ccc4c3C)ccc2F)[nH]c1C(O)c1cccc(CCC(=O)O)c1 (centres unmarked) [Example 217, 3-(3-((2-(2-Fluoro-5-((6-fluoro-4-methyl-1H-indol-5-yl)oxy)phenyl)-4-methyl-1H-imidazol-5-yl)(hydroxy)methyl)phenyl)propanoic acid] | B (B: 5-10° C.) |
| CC(O)(c1cccc(CCC(=O)O)c1)c1cnc(-c2cc(Oc3c(F)cc4[nH]ccc4c3P(C)(C)=O)ccc2F)[nH]1 (centres unmarked) [Example 96, 3-(3-(1-(2-(5-((4-(Dimethylphosphoryl)-6-fluoro-1H-indol-5-yl)oxy)-2-fluorophenyl)-1H-imidazol-5-yl)-1-hydroxyethyl)phenyl)propanoic acid] | B (B: 5-10° C.) |
| CO[C@]1(C)C[C@@](c2cccc(CCC(=O)O)c2)(c2cnc(-c3cc(Oc4c(F)c(F)c5[nH]ccc5c4S(C)(=O)=O)ccc3F)[nH]2)C1 [Example 70, rac-3-(3-((1r,3r)-1-(2-(5-((6,7-Difluoro-4-(methylsulfonyl)-1H-indol-5-yl)oxy)-2-fluorophenyl)-1H-imidazol-5-yl)-3-methoxy-3-methylcyclobutyl)phenyl)propanoic acid] | A (A: T ≥ 10° C.) |
| CC(C)(c1cnc(-c2cc(Oc3c(F)cc4[nH]ccc4c3F)ccc2F)[nH]1)c1cccc(CCC(=O)O)c1F [Example 160, 3-(3-(2-(2-(5-((4,6-difluoro-1H-indol-5-yl)oxy)-2-fluorophenyl)-1H-imidazol-5-yl)propan-2-yl)-2-fluorophenyl)propanoic acid] | B (B: 5-10° C.) |
| Cc1c(Oc2ccc(F)c(-c3nnc(Cc4cccc(C5(F)CC(C(=O)O)C5)c4)[nH]3)c2)c(F)cc2[nH]ccc12 (centres unmarked) [Example 248, 3-Fluoro-3-(3-((5-(2-fluoro-5-((6-fluoro-4-methyl-1H-indol-5-yl)oxy)phenyl)-4H-1,2,4-triazol-3-yl)methyl)phenyl)cyclobutane-1-carboxylic acid] | C (C: ≤5° C.) |
| Cc1c(Oc2ccc(F)c(-c3nnc(Cc4ccc5c(c4)CC(C(=O)O)C5)[nH]3)c2)c(F)cc2[nH]ccc12 (centres unmarked) [Example 245, 5-((5-(2-Fluoro-5-((6-fluoro-4-methyl-1H-indol-5-yl)oxy)phenyl)-4H-1,2,4-triazol-3-yl)methyl)-2,3-dihydro-1H-indene-2-carboxylic acid] | C (C: ≤5° C.) |
| O=C(O)CCCCCc1cccc(Cc2nnc(-c3cccc(Oc4ccc5[nH]ccc5c4)c3)[nH]2)c1 [Example 255, 6-(3-((5-(3-((1H-indol-5-yl)oxy)phenyl)-4H-1,2,4-triazol-3-yl)methyl)phenyl)hexanoic acid] | C (C: ≤5° C.) |
| CC(CC#N)(c1cccc(CCC(=O)O)c1)c1cnc(-c2cc(Oc3c(F)cc4[nH]ccc4c3S(C)(=O)=O)ccc2F)[nH]1 (centres unmarked) [Example 76, 3-(3-(1-Cyano-2-(2-(2-fluoro-5-((6-fluoro-4-(methylsulfonyl)-1H-indol-5-yl)oxy)phenyl)-1H-imidazol-5-yl)propan-2-yl)phenyl)propanoic acid] | A (A: T ≥ 10° C.) |
| O=C(O)CCc1cccc(Cc2nnc(-c3cccc(Oc4c(F)cc5[nH]ccc5c4[S+]([O-])C(F)F)c3)[nH]2)c1 (centres unmarked) [Example 25, 3-(3-((5-(3-((4-((Difluoromethyl)sulfinyl)-6-fluoro-1H-indol-5-yl)oxy)phenyl)-4H-1,2,4-triazol-3-yl)methyl)phenyl)propanoic acid] | C (C: ≤5° C.) |
| CC(O)(c1cccc(CCC(=O)O)c1)c1c[nH]c(-c2cc(Oc3cc4cc[nH]c4c(F)c3F)ccc2F)n1 (centres unmarked) [Example 198, 3-(3-(1-(2-(5-((6,7-difluoro-1H-indol-5-yl)oxy)-2-fluorophenyl)-1H-imidazol-4-yl)-1-hydroxyethyl)phenyl) propanoic acid] | A (A: T ≥ 10° C.) |
| CC(C#N)(c1cccc(CCC(=O)O)c1)c1cnc(-c2cc(Oc3c(F)c(F)c4[nH]ccc4c3F)ccc2F)[nH]1 (centres unmarked) [Example 54, 3-(3-(1-cyano-1-(2-(2-fluoro-5-((4,6,7-trifluoro-1H-indol-5-yl)oxy)phenyl)-1H-imidazol-5-yl)ethyl)phenyl)propanoic acid] | B (B: 5-10° C.) |
| COCCOCCOC(C)(c1cccc(CCC(=O)O)c1)c1cnc(-c2cc(Oc3c(F)cc4[nH]ccc4c3C)ccc2F)[nH]1 (centres unmarked) [Example 233, 3-(3-(1-(2-(2-Fluoro-5-((6-fluoro-4-methyl-1H-indol-5-yl)oxy)phenyl)-1H-imidazol-5-yl)-1-(2-(2-methoxyethoxy)ethoxy)ethyl)phenyl)propanoic acid] | B (B: 5-10° C.) |
| O=C(O)CCc1cccc(Cc2cnc(-c3cc(Oc4c(F)cc5[nH]ccc5c4Cl)ccc3F)[nH]2)c1 [Example 107, 3-(3-((2-(5-((4-chloro-6-fluoro-1H-indol-5-yl)oxy)-2-fluorophenyl)-1H-imidazol-5-yl)methyl)phenyl)propanoic acid] | B (B: 5-10° C.) |
| Cc1c(Oc2ccc(F)c(-c3ncc(C4(c5cc(F)cc(CCC(=O)O)c5)CC4)[nH]3)c2)c(F)cc2[nH]ccc12 [Example 156, 3-(3-fluoro-5-(1-(2-(2-fluoro-5-((6-fluoro-4-methyl-1H-indol-5-yl)oxy)phenyl)-1H-imidazol-5-yl)cyclopropyl)phenyl)propanoic acid] | B (B: 5-10° C.) |
| COP(=O)(O)Cc1cccc(Cn2ccc(-c3cccc(Oc4ccc5[nH]ccc5c4CO)c3)n2)c1 [Example 13, methyl hydrogen (3-((3-(3-((4-(hydroxymethyl)-1H-indol-5-yl)oxy)phenyl)-1H-pyrazol-1-yl)methyl)benzyl)phosphonate] | B (B: 5-10° C.) |
| CC(c1cnc(-c2cc(Oc3c(F)cc4[nH]ccc4c3CN3CCCS3(=O)=O)ccc2F)[nH]1)c1cccc(CCC(=O)O)c1F (single isomer, unassigned) [Example 134A, 3-(3-(1-(2-(5-((4-((1,1-dioxidoisothiazolidin-2-yl)methyl)-6-fluoro-1H-indol-5-yl)oxy)-2-fluorophenyl)-1H-imidazol-5-yl)ethyl)-2-fluorophenyl)propanoic acid] | B (B: 5-10° C.) |
| CC(C#N)(c1cccc(CCC(=O)O)c1)c1cnc(-c2cc(Oc3c(F)c(F)c4[nH]ccc4c3C3CC3)ccc2F)[nH]1 (centres unmarked) [Example 53, 3-(3-(1-cyano-1-(2-(5-((4-cyclopropyl-6,7-difluoro-1H-indol-5-yl)oxy)-2-fluorophenyl)-1H-imidazol-5-yl)ethyl)phenyl)propanoic acid] | B (B: 5-10° C.) |
| O=C(O)CCc1ccc(F)c(Cc2cnc(-c3cc(Oc4c(F)cc5[nH]ccc5c4F)ccc3F)[nH]2)c1 [Example 103, 3-(3-((2-(5-((4,6-difluoro-1H-indol-5-yl)oxy)-2-fluorophenyl)-1H-imidazol-5-yl)methyl)-4-fluorophenyl)propanoic acid] | B (B: 5-10° C.) |
